Results: publication PMC11891579, “Fluorescent PyrAte-(S)-citalopram conjugates enable imaging of the serotonin transporter in living tissue” (Chemical Science, 2025)
Entries after “also recorded” stand apart in the source; their conditions may differ.

Tests used:
Format in all cases: cell-based
[1] = target: T1, mCherry-SERT-expressing HEK293 cells (Homo sapiens, UniProt P31645); experiment: confocal microscopy of membrane staining; conditions: for membrane staining of mCherry-SERT HEK293 cells: 20 nM
T1 construct: expressed in transfected cells
Method: Prior to imaging, cell culture medium was replaced with pre-warmed KHB. HEK293 cells expressing mCherry-SERT were imaged using a Nikon A1R laser scanning confocal microscope equipped with a GaAsP detector, using a 60× oil-immersion objective. PyrAtes dissolved in DMSO were diluted in KHB (0.1% v/v) to make solutions with the desired final concentration (20 nM, 100 nM), which were added to each well containing the cells. To test specific binding, cells were pre-incubated with 10 – 30 µM paroxetine for 10 minutes. PyrAtes were excited using a 405 nm laser, and its fluorescent signals collected using 525/50 nm emission filters; mCherry was excited using a 561 nm laser, and fluorescence was collected using 595/50 nm emission filters. Images were captured prior to and at specific time points after addition of the PyrAte compounds using NIS-Elements software. […]
Cells were voltage-clamped (−60 mV) and continuously superfused with a physiological external solution containing 140mM NaCl, 2.5 mM CaCl2,2mM MgCl2, 20mM glucose and 10mM HEPES, pH= 7.4. Micropipettes were made from borosilicate glass capillaries with a resistance ranging from 2.5 – 6 MΩ using a P-97 micropipette puller (Sutter Instrument), which were then filled with an internal solution containing 133mM K-gluconate, 6mM NaCl, 1mM CaCl2, 0.7 mM MgCl2, 10mM HEPES, 10mM EGTA, pH= 7.2. For the measurements we used an amplifier […] and pClamp 11.2 software (MDS Analytical Technologies, Sunnyvale, CA, USA). The compounds were diluted the day of the experiments in external solutions and applied using a DAD-12 superfusion system with a 8-tube perfusion manifold (ALA Scientific Instruments, Farmingdale, NY, USA), guaranteeing rapid solution exchange. Current traces were filtered at 1 kHz and digitized at 10 kHz using a Digidata 1550 (MDS Analytical Technologies). […]

YhSERT = target: T2, YhSERT (Homo sapiens, UniProt P31645); experiment: radioligand uptake inhibition assay ([3H]5HT); conditions: for IC50: HEK293 stably expressing YhSERT, 100 nM [3H]5HT, mean and SD, N = 3-6, read-out: IC50, uptake inhibition at SERT (YhSERT); for selectivity to SERT vs. DAT / selectivity to SERT vs. NET / selectivity to SERT vs. OCT3: from uptake inhibition IC50; for decrease of SERT affinity (IC50) compared to (S)-citalopram: uptake inhibition IC50; for Hill coefficient nH at SERT: uptake inhibition curve
T2 construct: expressed in transfected cells
Method: (§1) 1. Biological characterization
(§2) 1.1. Experimental methods
(§3) Buffer and solution compositions (in mM) are as follows:
(§4) Krebs-HEPES buffer (KHB): 120 NaCl, 3 KCl, 2 CaCl2, 2 MgCl2, 20 glucose, 10 HEPES NaOH, pH = 7.3 – 7.4. […]
(§5) 10 mM glucose, 1.25 mM NaH2PO4, pH = 7.4 (oxygenated with 95% O2, 5% CO2).
(§6) Human embryonic kidney 293 cells (HEK293) stably expressing the mCherry-tagged, YFP-tagged, and GFP-tagged human isoforms of SERT (mCherry-SERT, YhSERT, GhSERT), DAT (YhDAT), NET (hNET), and OCT3 (YhOCT3) were cultured in Dulbecco's modified Eagle's medium (DMEM) with high glucose (4.5 g/L) and l-glutamine (584 mg/L), supplemented with 10% fetal calf serum (FCS), 100 units/mL penicillin and 100 µg/mL streptomycin. The cells were cultured in a humidified atmosphere (37 °C, 5% CO2). Geneticin (50 µg/mL), Blasticidin (6 µg/mL), and Zeocin® (150 µg/mL) were added to maintain the selection pressure for the stable cell lines. Cells were typically seeded 24 hours prior to the experiments.
(§7) For uptake inhibition experiments, cells were seeded at 3.6 x 10^4 cells/0.2 mL into 96-well plates coated […]
(§8) with poly-d-lysine (PDL). […]
(§9) For uptake inhibition experiments, the cell medium was aspirated and the cells were washed once with 0.2 mL/well KHB at room temperature. The cells were pre-incubated with increasing concentrations of the substance of interest, diluted in KHB (0.05 mL/well). The pre-incubation solution was replaced with 0.05 mL/well KHB solution still containing the substance of interest and additionally the tritiated substrate (100 nM [3H]DA for YhDAT; 100 nM [3H]5HT for YhSERT; 20 nM and 50 nM [3H]MPP+ for hNET and YhOCT3), after 6 minutes (YhSERT), 5 minutes (YhDAT, hNET), or 10 minutes (YhOCT3). Substrate uptake was stopped after one minute (for [3H]DA and [3H]5HT), three minutes, or […]
ten minutes (for [3H]MPP+), by exchange of the substrate-containing buffer with 0.2 mL ice-cold KHB.
The KHB was aspirated immediately. Cells were lysed and prepared for [3H] content analysis by adding 0.2 mL Ultima Gold™ XR liquid scintillation cocktail. Measurements were performed in a 1450 MicroBeta microplate liquid scintillation counter. Non-specific uptake was determined in the presence of 30 µM paroxetine (for YhSERT), 50 µM GBR12909 (for YhDAT and hNET), or 100 µM decynium-22 (for YhOCT3). […]

YhDAT = target: T3, YhDAT (Homo sapiens, UniProt Q01959); experiment: radioligand uptake inhibition assay ([3H]DA); conditions: for IC50: HEK293 stably expressing YhDAT, 100 nM [3H]DA, mean and SD, N = 3-6, read-out: IC50, uptake inhibition at DAT (YhDAT); for Hill coefficient nH at DAT: uptake inhibition curve
T3 construct: expressed in transfected cells
Method: as §1, §2, §3, §4, §5, §6, §7, §8, §9
The KHB was aspirated immediately. […] Non-specific uptake was determined in the presence of 30 µM paroxetine (for YhSERT), 50 µM GBR12909 (for YhDAT and hNET), or 100 µM decynium-22 (for YhOCT3). […]
[3H]-imipramine, and increasing concentrations of test compound, for 60 min at 20 – 22 °C. […] The amount of radioactivity in the filters was measured using a Tri-Carb 2800TR liquid scintillation analyzer (PerkinElmer). The Ki was calculated from the measured IC50 using the Cheng-Prusoff equation.
Prior to imaging, cell culture medium was replaced with pre-warmed KHB. […] PyrAtes were excited using a 405 nm laser, and its fluorescent signals collected using 525/50 nm emission filters; mCherry was excited using a 561 nm laser, and fluorescence was collected using 595/50 nm emission filters. […]
5HT-mediated currents were measured at room temperature (20-25°C) using whole-cell patch clamp in HEK293 cells stably expressing SERT. […]

T2 sequence (P31645 whole entry): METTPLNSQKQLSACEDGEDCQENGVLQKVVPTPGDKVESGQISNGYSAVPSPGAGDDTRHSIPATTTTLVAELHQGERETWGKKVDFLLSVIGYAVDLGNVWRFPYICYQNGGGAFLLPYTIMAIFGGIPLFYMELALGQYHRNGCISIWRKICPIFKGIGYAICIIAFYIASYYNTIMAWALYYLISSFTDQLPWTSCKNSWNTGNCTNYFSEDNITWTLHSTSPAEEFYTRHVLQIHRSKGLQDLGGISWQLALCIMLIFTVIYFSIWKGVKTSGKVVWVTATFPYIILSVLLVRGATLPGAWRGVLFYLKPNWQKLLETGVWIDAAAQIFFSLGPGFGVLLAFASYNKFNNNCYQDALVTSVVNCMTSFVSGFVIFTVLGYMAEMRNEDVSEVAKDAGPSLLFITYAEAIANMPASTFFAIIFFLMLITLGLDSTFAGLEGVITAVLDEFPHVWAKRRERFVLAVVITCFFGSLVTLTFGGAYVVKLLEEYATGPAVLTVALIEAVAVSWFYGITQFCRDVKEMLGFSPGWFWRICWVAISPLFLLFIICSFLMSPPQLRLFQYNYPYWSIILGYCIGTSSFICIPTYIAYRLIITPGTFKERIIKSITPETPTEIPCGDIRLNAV
T1 sequence (P31645 whole entry): as above
T3 sequence (Q01959 whole entry): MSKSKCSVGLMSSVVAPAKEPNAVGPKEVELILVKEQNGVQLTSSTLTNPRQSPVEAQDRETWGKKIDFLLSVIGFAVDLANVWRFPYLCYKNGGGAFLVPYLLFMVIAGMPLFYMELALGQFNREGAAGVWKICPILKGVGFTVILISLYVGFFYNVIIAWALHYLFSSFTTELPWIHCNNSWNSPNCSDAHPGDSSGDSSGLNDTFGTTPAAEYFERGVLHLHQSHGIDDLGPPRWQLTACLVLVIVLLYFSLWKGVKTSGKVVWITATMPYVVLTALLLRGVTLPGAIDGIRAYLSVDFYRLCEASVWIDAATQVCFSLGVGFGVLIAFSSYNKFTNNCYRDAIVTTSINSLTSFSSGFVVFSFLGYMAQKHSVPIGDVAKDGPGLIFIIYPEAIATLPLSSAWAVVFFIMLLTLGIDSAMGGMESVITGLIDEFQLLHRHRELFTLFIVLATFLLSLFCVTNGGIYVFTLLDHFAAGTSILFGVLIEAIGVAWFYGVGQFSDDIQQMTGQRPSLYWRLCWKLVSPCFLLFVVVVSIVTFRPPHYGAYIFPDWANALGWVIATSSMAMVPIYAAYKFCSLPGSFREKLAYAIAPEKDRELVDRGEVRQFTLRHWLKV

IC50 (YhSERT) [nM]	selectivity to SERT vs. DAT (YhSERT)	selectivity to SERT vs. NET (YhSERT) [fold]	selectivity to SERT vs. OCT3 (YhSERT) [fold]	decrease of SERT affinity (IC50) compared to (S)-citalopram (YhSERT)	Hill coefficient nH at SERT (YhSERT)	IC50 (YhDAT) [nM]	Hill coefficient nH at DAT (YhDAT)	staining of mCherry-SERT HEK293 cells ([1]; 100 nM)	Structure (SMILES)	membrane staining of mCherry-SERT HEK293 cells ([1]; 60 min incubation, absent with paroxetine)	membrane staining of mCherry-SERT HEK293 cells ([1]; 30 min incubation, blocked by 30 μM paroxetine)
400	around 10 fold	27	8.2	10 fold	−3.0	3570	−1.3		CCN(CC)c1ccc(-c2cc[n+]3c(-c4ccccc4)c(N4CCCC4)n(CCCC(=O)NCc4ccc5c(c4)CO[C@@]5(CCCN(C)C)c4ccc(F)cc4)c3c2)cc1 [PYR-C3-CIT, PyrAte-C3-(S)-citalopram]	enhanced co-localization of PyrAte and mCherrySERT signals and no internalization; also recorded: SERT-specific membrane staining	
830	2.5 fold	15	2.5	around 20 fold	−3.1	2050	−1.5	mitochondrial staining	CCN(CC)c1ccc(-c2cc[n+]3c(-c4ccccc4)c(N4CCCC4)n(CCCCCCC(=O)NCc4ccc5c(c4)CO[C@@]5(CCCN(C)C)c4ccc(F)cc4)c3c2)cc1 [PYR-C6-CIT, PyrAte-C6-(S)-citalopram]		binds specifically to membrane-expressed SERT; also recorded: SERT-specific membrane staining
